Calls of active or inactive are those of the source. The calls are words filed in the database; no cut-off is given here.
Legend:
[1] = Metabolic stability in human liver microsome assessed as clearance measured for 2 to 60 mins by LC-MS/MS analysis; assay type: ADME; conditions: microsomes, time 2-60 min
[2] = Antiproliferative activity against human KPL-1 cells assessed as inhibition of cell growth incubated for 6 days by alamar blue staining based assay relative to control; assay type: functional; conditions: time 6 day
HaCaT = assay: Cytotoxicity against human HaCaT cells incubated for 72 hrs; assay type: toxicity, cell-based
[3] = Metabolic stability in rat liver microsome assessed as clearance measured for 2 to 60 mins by LC-MS/MS analysis; assay type: ADME; conditions: microsomes, time 2-60 min
[4] = Metabolic stability in mouse hepatocyte assessed as clearance measured for 2 to 90 mins by LC-MS/MS analysis; assay type: ADME, cell-based; conditions: hepatocytes, time 2-90 min
[5] = Plasma protein binding in rat assessed as unbound fraction equilibrium dialysis based LC-MS/MS analysis; assay type: ADME, cell-free
[6] = AUC in male Wistar rat at 0.5 mg/kg, iv measured upto 24 hrs by LC-MS/S analysis; assay type: ADME, organism-based; conditions: in vivo
[7] = biological target: Histone acetyltransferase KAT5 (Homo sapiens, UniProt Q92993); assay: Inhibition of full length N-terminal GST-tagged human recombinant KAT5 expressed in Sf9 insect cells using H4-derived peptide as substrate incubated for 30 mins in presence of AcCoA by TR-FRET assay
[8] = Clearance in mouse at 0.5 mg/kg, iv; assay type: ADME, organism-based; conditions: in vivo
[9] = Metabolic stability in rat hepatocyte assessed as clearance measured for 2 to 90 mins by LC-MS/MS analysis; assay type: ADME, cell-based; conditions: hepatocytes, time 2-90 min
[10] = Apparent permeability across apical to basolateral side in human Caco-2 cells at 2 uM pH 7.2 measured for 2 hrs by LC-MS/MS analysis; assay type: ADME, cell-based; conditions: caco-2, pH 7.2, 2 h, 2 µM
[11] = Mutagenicity in Salmonella typhimurium TA98 in presence of S9 fraction by Ames test; assay type: toxicity, subcellular; conditions: salmonella enterica subsp. enterica serovar typhimurium
[12] = Metabolic stability in human hepatocyte assessed as maximum bioavailability of the drug measured for 2 to 90 mins by LC-MS/MS analysis; assay type: ADME; conditions: hepatocytes, time 2-90 min, read-out: Fmax
[13] = Oral bioavailability in male Wistar rat at 1 mg/kg measured upto 24 hrs by LC-MS/S analysis; assay type: ADME, organism-based; conditions: in vivo
[14] = Metabolic stability in rat hepatocyte assessed as maximum bioavailability of the drug measured for 2 to 90 mins by LC-MS/MS analysis; assay type: ADME; conditions: hepatocytes, time 2-90 min, read-out: Fmax
[15] = Metabolic stability in rat liver microsome assessed as maximum bioavailability of the drug measured for 2 to 60 mins by LC-MS/MS analysis; assay type: ADME; conditions: liver microsomes, time 2-60 min, read-out: Fmax
[16] = Metabolic stability in dog liver microsome assessed as maximum bioavailability of the drug measured for 2 to 60 mins by LC-MS/MS analysis; assay type: ADME, Canis lupus familiaris; conditions: liver microsomes, time 2-60 min, read-out: Fmax
[17] = Metabolic stability in dog hepatocyte assessed as maximum bioavailability of the drug measured for 2 to 90 mins by LC-MS/MS analysis; assay type: ADME, Canis lupus familiaris; conditions: hepatocytes, time 2-90 min, read-out: Fmax
[18] = Plasma protein binding in human assessed as unbound fraction equilibrium dialysis based LC-MS/MS analysis; assay type: ADME, cell-free
[19] = Mutagenicity in Escherichia coli WP2 uvrA by Ames test; assay type: toxicity
ZR-75-1 [20] = assay: Antitumor activity against human ZR-75-1 cells xenografted in female estradiol-primed NMRI mouse assessed as reduction in H3K23 acetylation level in tumor at 100 mg/kg, po administered twice daily measured after 1 to 3 hrs by immunohistochemical analysis; assay type: functional, organism-based; conditions: time 1-3 hrs
[21] = AUC in male Wistar rat at 1 mg/kg, po measured upto 24 hrs by LC-MS/S analysis; assay type: ADME, organism-based; conditions: in vivo
HCC1428 = assay: Antiproliferative activity against human HCC1428 cells assessed as inhibition of cell growth incubated for 6 days by alamar blue staining based assay relative to control; assay type: functional; conditions: time 6 day
[22] = Stability in human plasma assessed as parent compound remaining after 4 hrs; assay type: ADME, cell-free
[23] = Clearance in male Wistar rat at 0.5 mg/kg, iv or 1 mg/kg, po measured upto 24 hrs by LC-MS/S analysis; assay type: ADME, organism-based; conditions: in vivo
[24] = Metabolic stability in human hepatocyte assessed as clearance measured for 2 to 90 mins by LC-MS/MS analysis; assay type: ADME, cell-based; conditions: hepatocytes, time 2-90 min
ZR-75-1 [25] = assay: Antitumor activity against human ZR-75-1 cells xenografted in female estradiol-primed NMRI mouse assessed as reduction in H3K23 acetylation level in tumor at 100 mg/kg, po administered twice daily measured after 24 hrs by immunohistochemical analysis; assay type: functional, organism-based
MDA-MB-436 = assay: Antiproliferative activity against human MDA-MB-436 cells assessed as inhibition of cell growth incubated for 6 days by alamar blue staining based assay relative to control; assay type: functional; conditions: time 6 day
[26] = biological target: Histone acetyltransferase KAT6A (Homo sapiens, UniProt Q92794); assay: Inhibition of KAT6A in human ZR-75-1 cells assessed as reduction in H3K23ac level at 1 uM incubated at 10 to 2880 mins by Western blot analysis; assay type: cell-based; conditions: time 10-2880 min
[27] = Mutagenicity in Salmonella typhimurium TA98 by Ames test; assay type: toxicity; conditions: salmonella enterica subsp. enterica serovar typhimurium

Chain of Histone acetyltransferase KAT5 (Q92993 whole entry): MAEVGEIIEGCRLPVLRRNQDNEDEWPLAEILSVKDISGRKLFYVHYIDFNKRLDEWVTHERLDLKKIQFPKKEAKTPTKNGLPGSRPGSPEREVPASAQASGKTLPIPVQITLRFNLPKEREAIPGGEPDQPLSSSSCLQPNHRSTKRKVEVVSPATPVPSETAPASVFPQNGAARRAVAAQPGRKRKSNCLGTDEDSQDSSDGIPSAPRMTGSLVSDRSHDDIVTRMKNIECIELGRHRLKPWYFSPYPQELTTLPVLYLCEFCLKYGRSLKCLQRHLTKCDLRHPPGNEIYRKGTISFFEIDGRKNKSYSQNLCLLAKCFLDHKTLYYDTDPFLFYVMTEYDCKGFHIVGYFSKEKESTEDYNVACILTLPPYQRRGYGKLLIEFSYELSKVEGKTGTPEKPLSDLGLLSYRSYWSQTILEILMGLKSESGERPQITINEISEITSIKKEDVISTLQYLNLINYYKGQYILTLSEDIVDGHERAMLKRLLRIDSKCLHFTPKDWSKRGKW
Chain of Histone acetyltransferase KAT6A (Q92794 whole entry, looked up): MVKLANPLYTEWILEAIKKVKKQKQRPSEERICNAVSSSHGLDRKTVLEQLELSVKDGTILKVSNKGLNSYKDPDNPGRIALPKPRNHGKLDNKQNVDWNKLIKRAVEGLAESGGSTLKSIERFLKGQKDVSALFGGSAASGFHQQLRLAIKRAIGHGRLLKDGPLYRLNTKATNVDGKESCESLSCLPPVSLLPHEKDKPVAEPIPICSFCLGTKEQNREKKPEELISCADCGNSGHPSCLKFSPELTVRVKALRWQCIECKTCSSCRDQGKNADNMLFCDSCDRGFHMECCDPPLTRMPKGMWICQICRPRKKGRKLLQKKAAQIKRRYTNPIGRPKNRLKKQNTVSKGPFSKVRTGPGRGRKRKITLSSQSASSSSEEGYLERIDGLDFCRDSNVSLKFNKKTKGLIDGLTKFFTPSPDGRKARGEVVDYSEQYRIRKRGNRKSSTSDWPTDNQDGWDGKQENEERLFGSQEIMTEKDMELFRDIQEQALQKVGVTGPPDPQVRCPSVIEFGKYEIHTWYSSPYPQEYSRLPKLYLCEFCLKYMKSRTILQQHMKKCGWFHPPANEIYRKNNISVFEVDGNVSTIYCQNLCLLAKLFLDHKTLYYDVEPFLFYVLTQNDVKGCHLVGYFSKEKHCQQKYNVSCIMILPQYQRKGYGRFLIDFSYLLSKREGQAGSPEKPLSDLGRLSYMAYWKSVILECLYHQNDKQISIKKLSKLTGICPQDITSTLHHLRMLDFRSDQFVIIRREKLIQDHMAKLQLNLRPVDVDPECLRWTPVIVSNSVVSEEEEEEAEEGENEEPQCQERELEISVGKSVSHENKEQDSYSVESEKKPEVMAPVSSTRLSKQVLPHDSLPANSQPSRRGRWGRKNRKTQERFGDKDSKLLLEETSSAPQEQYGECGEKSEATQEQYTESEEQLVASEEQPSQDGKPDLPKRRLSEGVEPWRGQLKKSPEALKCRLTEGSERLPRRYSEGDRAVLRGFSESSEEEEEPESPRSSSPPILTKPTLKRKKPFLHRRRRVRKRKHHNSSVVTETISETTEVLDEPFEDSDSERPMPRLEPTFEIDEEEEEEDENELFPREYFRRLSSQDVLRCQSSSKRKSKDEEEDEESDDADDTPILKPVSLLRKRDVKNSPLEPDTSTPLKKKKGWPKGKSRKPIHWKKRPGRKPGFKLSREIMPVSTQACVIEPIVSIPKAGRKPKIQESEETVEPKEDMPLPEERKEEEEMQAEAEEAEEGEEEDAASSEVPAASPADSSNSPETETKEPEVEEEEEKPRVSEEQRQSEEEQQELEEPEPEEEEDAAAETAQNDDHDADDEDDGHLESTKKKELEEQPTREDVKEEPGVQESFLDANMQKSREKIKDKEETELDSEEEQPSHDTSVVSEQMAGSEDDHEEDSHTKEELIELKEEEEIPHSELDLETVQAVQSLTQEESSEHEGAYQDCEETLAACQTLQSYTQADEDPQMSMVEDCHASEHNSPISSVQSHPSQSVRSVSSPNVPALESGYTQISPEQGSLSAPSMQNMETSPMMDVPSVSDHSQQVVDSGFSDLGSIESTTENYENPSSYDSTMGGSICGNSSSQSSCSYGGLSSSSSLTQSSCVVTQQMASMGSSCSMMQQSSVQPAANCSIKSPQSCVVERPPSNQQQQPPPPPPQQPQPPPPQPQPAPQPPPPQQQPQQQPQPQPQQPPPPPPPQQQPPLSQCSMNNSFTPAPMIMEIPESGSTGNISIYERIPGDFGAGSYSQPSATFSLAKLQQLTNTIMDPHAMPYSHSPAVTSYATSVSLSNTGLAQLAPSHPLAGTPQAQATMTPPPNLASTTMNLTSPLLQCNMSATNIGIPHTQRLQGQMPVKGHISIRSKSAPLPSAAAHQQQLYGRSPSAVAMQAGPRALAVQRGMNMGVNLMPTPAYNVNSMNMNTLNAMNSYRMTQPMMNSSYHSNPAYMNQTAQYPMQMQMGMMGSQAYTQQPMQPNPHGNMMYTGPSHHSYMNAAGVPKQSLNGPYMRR

CN(C)c1ccc2cc(C(=O)NS(=O)(=O)c3ccccc3-c3ccccc3)oc2c1
CLH [1]: 12.8 mL/min/kg
inhibition (INH) [2]: 30%
Activity (HaCaT): Non-toxic
CLH [3]: 50 mL/min/kg
CLH [4]: 60 mL/min/kg
Fu [5]: 0.048%
AUC [6]: 5.5 kg·h/L
IC50 [7]: 14.3 µM
clearance [8]: 9.33 mL/min/kg
CLH [9]: 41.7 mL/min/kg
Papp [10]: 14.6 ×10⁻⁶ cm/s
Activity [11]: Non-toxic
Fh [12]: 25%
bioavailability [13]: 60%
Fh [14]: 42%
Fh [15]: 28%
Fh [16]: 80%
Fh [17]: 53%
Fu [18]: 0.042%
Activity [19]: Non-toxic
Activity (ZR-75-1 [20]): Active
AUC [21]: 3.3 kg·h/L
inhibition (INH) (HCC1428): 51%
Stability [22]: Stable
clearance [23]: 5.67 mL/min/kg
CLH [24]: 16.5 mL/min/kg
Activity (ZR-75-1 [25]): Active
inhibition (INH) (MDA-MB-436): 0%
inhibition [26]: Active
Activity [27]: Non-toxic
